The values that follow come from US5002943A, “Condensed diazepinones, processes for preparing them and pharmaceutical compositions containing these compounds” (priority 1988, dated 1991).

The term IC50 denotes the concentration at which inhibition is half-maximal. The ED50 is the midpoint of the dose-response relation.

Structures can show the parent of a compound that is named as a salt. Where two headings read alike, the source gives them in different places.

Assay [1] deals with muscarinic receptors (cerebral cortex). Description: Muscarinic receptor binding, cerebral cortex (displacement of 3H-N-methylscopolamine). Further details: species or system male Sprague-Dawley rats. Conditions: cerebral cortex homogenate; 0.3 nanomolar 3H-NMS; 30 C; 45 minutes; pH 7.4; read-out: Receptor Binding Tests IC50, Cortex. How it is done: (§1) A. Studies of binding to muscarinic receptors:
(§2) In vitro measurement of the IC50 value
(§3) The organs were donated by male Sprague-Dawley rats weighing 180-220 g. After the heart and submandibular gland and cerebral cortex had been removed, all other steps were carried out in ice cold Hepes HCl buffer (pH 7.4; 100 millimolar NaCl, 10 millimolar MgClz). The whole heart was cut up with scissors. All the organs were then homogenised in a Potter apparatus.
(§4) For the binding test the homogenised organs were diluted as follows:
The homogenised organs were incubated at a certain concentration of the radioligand and at a series of concentrations of the non-radioactive test substances in an Eppendorf centrifuge tube at 30 C. Incubation lasted 45 minutes. The radioligand used was 0.3 nanomolar 3H-N-methylscopolamine (^3 H-NMS). Incubation was ended by the addition of ice cold buffer followed by vacuum filtration. The filters were rinsed with cold buffer and their radioactivity was determined. It represents the sum of specific and non-specific binding of ^3 H-NMS. The proportion of non-specific binding was defined as the radioactivity which was bound in the presence of 1 micromolar quinuclidinylbenzylate. Each measurement was taken four times. The IC50 values of the non-labelled test substances were determined graphically. […]
In general terms: Displacement assays read how much labelled ligand stays bound in the presence of the test substance.

Assay [2] relates to acetylcholine activity on heart rate. Nature of the assay: Inhibition of the effect of acetylcholine on heart rate in guinea pigs. In kind it is in vivo, guinea pig. To be noted: Cavia porcellus, 5 min. How it is done:
(§5) The objective of the methods was to confirm the selectivity of the antimuscarinic effect. Those substances which had been selected on the basis of "in vitro" tests were tested for their 3. […] M1 /M2 SELECTIVITY IN THE RAT 3. INHIBITION OF THE EFFECT OF ACETYLCHOLINE ON THE BLADDER, BRONCHI AND HEART RATE IN GUINEA PIGS 5 minutes after the administration of the test substance, 10 microgram/kg of acetylcholine were simultaneously injected intravenously and intra-arterially into anaesthetised guinea pigs. The heart rate was recorded directly by extracorporeal derivation of the ECG, the expiration resistance according to Konzett-Ro ler and contraction of the exposed bladder. In order to determine the inhibition of the acetylcholine activity on the organs under investigation, dosage/activity curves were recorded and from them -log ED50 values were determined.

Assay [3] concerns the target T1, muscarinic receptors (heart) (Rattus norvegicus, UniProt P10980).
T1 sequence (P10980 1-466): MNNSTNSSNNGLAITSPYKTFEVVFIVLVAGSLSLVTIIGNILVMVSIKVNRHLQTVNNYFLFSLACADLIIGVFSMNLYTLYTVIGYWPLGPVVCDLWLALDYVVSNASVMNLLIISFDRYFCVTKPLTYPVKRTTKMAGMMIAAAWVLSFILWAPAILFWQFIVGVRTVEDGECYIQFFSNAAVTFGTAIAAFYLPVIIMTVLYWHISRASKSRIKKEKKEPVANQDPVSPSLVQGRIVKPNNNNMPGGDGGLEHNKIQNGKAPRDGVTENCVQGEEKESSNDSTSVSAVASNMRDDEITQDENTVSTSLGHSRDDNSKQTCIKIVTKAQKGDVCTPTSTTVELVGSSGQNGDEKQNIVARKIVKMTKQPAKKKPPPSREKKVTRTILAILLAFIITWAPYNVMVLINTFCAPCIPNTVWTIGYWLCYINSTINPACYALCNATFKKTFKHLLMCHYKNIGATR
Description: biochemical. Set-up: species or system male Sprague-Dawley rats. Conditions: whole heart homogenate; 0.3 nanomolar 3H-NMS; 30 C; 45 minutes; pH 7.4; read-out: Receptor Binding Tests IC50, Heart.

Assay [4] addresses muscarinic receptors (submandibular gland) (Rattus norvegicus, UniProt P08483). Nature of the assay: biochemical. Conditions: submandibular gland homogenate; 0.3 nanomolar 3H-NMS; 30 C; 45 minutes; pH 7.4; read-out: Receptor Binding Tests IC50, Submandibular gland. Set-up: species or system male Sprague-Dawley rats. How it is done:
as §1, §2, §3, §4
Submandibular gland 1:400
The homogenised organs were incubated at a certain concentration of the radioligand and at a series of concentrations of the non-radioactive test substances in an Eppendorf centrifuge tube at 30 C. Incubation lasted 45 minutes. The radioligand used was 0.3 nanomolar 3H-N-methylscopolamine (^3 H-NMS). Incubation was ended by the addition of ice cold buffer followed by vacuum filtration. The filters were rinsed with cold buffer and their radioactivity was determined. It represents the sum of specific and non-specific binding of ^3 H-NMS. The proportion of non-specific binding was defined as the radioactivity which was bound in the presence of 1 micromolar quinuclidinylbenzylate. Each measurement was taken four times. The IC50 values of the non-labelled test substances were determined graphically. They represent that concentration of test substance at which the specific binding of 3H-NMS to the muscarinic receptors in the various organs was inhibited by 50%.

Assay [5] concerns acetylcholine activity on the bladder. Description: Inhibition of the effect of acetylcholine on the bladder in guinea pigs. In kind it is in vivo, guinea pig. Conditions: Cavia porcellus, 5 min. How it is done: as §5
Assay [6] deals with acetylcholine activity on the bronchi. Description: Inhibition of the effect of acetylcholine on the bronchi in guinea pigs. It is filed as in vivo. Conditions: Cavia porcellus, 5 min; anaesthetised guinea pig; 5 minutes after test substance; 10 microgram/kg acetylcholine; expiration resistance; read-out: -log ED50, Bronchi (converted). On the procedure: as §5
A further assay deals with T2, M1 (Rattus norvegicus, UniProt P08482).
T2 construct: from tissue; host or cells: living rat (male THOM rats, in vivo); sympathetic ganglia by own knowledge
T2 sequence (P08482 1-460): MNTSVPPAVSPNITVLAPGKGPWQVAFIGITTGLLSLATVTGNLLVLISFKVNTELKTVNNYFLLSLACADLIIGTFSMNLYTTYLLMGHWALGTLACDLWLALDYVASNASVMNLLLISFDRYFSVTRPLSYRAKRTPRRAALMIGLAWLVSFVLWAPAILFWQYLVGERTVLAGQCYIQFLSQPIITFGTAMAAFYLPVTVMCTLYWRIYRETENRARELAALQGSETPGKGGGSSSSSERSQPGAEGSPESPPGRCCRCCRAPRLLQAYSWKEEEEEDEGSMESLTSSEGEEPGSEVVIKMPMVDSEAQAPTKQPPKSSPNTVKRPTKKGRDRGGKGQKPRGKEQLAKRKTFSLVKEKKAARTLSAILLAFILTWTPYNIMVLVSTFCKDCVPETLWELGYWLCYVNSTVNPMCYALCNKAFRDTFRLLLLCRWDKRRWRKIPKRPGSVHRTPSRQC
Description: M1/M2 selectivity in the rat: inhibition of McN-A-343-induced rise in blood pressure (M1). It is filed as in vivo, male THOM rats. Conditions: iv, 5 min. The source says: (§6) B. Investigation of functional selectivity of the antimuscarinic effect
(§7) Substances with antimuscarinic properties inhibit the effects of agonists supplied exogenically or of acetylcholine, which is released from cholinergic nerve endings. The following is a description of some methods that are suitable for the detection of cardioselective antimuscarinic agents.
(§8) The objective of the methods was to confirm the selectivity of the antimuscarinic effect. Those substances which had been selected on the basis of "in vitro" tests were tested for their
(§9) 1. M1 /M2 selectivity in the rat,
(§10) 3. Inhibition of the acetylcholine effect on the bladder, bronchi and heart rate in the guinea pig. 1. M1 /M2 SELECTIVITY IN THE RAT
The dosage of the substances which reduced either the vagal bradycardia (M2) or the rise in blood pressure (M1) by 50% was determined graphically. For the results see Table II.

The next assay concerns the target T3, M2 (Rattus norvegicus, UniProt P10980).
T3 construct: The bradycardia caused by vagus stimulation; from tissue; host or cells: heart of the living rat (male THOM rats, in vivo)
T3 sequence (P10980 1-466): T1 sequence (P10980 1-466)
Description: M1/M2 selectivity in the rat: inhibition of vagal bradycardia (M2). To be noted: iv, 5 min. In kind it is in vivo, male THOM rats.
From the text: as §6, §7, §8, §9, §10
The method used was described by Hammer and Giachetti (Life Sciences 31, 2991-2998 (1982)). 5 minutes after the intravenous injection of increasing doses of the substance, either the right vagus was electrically stimulated (frequency: 25 Hz; pulse width: 2ms; duration of stimulus: 30s; voltage: supramaximal) or 0.3 mg/kg of McN-A-343 were intravenously injected into male THOM rats. The bradycardia caused by vagus stimulation and the rise in blood pressure caused by McN-A-343 were determined. The dosage of the substances which reduced either the vagal bradycardia (M2) or the rise in blood pressure (M1) by 50% was determined graphically. For the results see Table II.

A further assay deals with secretion of saliva. Nature of the assay: Salivation-inhibiting effect in the rat (pilocarpine-induced saliva secretion). Conditions: iv; urethane-anaesthetised rat; i.v.; pilocarpine 2 mg/kg s.c.; read-out: -log ED50, Salivation (converted). It is filed as in vivo, male THOM rats. How it is done:
as §8
2. Salivation-inhibiting effect on the rat and
2. SALIVATION-INHIBITING EFFECT IN THE RAT
The secretion of saliva was initiated by subcutaneous administration of 2 mg/kg of pilocarpine. The saliva was absorbed with blotting paper and the surface area covered was measured every 5 minutes by planimetry. The dosage of the substance which reduced the volume of saliva by 50% was determined graphically. For the results see Table II.

[7] abbreviates: anaesthetised guinea pig, 5 minutes after test substance, 10 microgram/kg acetylcholine, read-out: -log ED50, Heart (converted).
The mark [8] stands for this setting: anaesthetised guinea pig, 5 minutes after test substance, 10 microgram/kg acetylcholine, contraction of exposed bladder, read-out: -log ED50, Bladder (converted).
Setting [9] is: i.v., 5 minutes after injection, 0.3 mg/kg McN-A-343 i.v., read-out: -log ED50, Blood pressure (McN-A-343 pressor response, M1) (converted).
Setting [10] is: i.v., 5 minutes after injection, vagus stimulation 25 Hz, read-out: -log ED50, Heart (vagal bradycardia, M2) (converted).

muscarinic receptors (submandibular gland), sequence (P08483 whole entry): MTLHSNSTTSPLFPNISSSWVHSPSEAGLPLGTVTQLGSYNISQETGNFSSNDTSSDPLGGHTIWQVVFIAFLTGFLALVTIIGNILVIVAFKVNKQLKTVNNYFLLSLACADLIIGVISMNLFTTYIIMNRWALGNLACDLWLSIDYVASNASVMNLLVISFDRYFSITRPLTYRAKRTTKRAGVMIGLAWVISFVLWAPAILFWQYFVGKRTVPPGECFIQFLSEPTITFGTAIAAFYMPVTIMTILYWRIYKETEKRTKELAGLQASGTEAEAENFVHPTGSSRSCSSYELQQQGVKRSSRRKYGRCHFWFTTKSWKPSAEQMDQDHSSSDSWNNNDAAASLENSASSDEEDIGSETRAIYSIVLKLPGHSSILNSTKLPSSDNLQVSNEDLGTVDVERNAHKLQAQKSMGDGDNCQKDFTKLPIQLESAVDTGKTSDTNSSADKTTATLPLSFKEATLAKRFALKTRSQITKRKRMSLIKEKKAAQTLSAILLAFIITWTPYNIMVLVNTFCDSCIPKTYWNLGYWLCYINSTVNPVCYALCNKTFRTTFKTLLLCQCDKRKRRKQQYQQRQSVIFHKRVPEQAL

For `CN(CCC1CCCN1C)CC(=O)N1c2ccccc2NC(=O)c2ccccc21` (stereo not drawn) [Substance C, 5,10-dihydro-5-[[[2-(1-methyl-2-pyrrolidinyl)-ethyl]methylamino]acetyl]-11H-dibenzo[b,e][1,4]-diazepin-11-one hydrochloride], the half-maximal inhibitory concentration (IC50) in assay [1] is 8 nM; in assay [3], 3 nM; in assay [4], 20 nM. The ED50 in assay [2] (setting [7]) is 0.0288 µmol/kg; in assay [5] (setting [8]) it was 0.234 µmol/kg; in [6] it was 0.0295 µmol/kg.
Take `CN(CCC1CCCN1C)CC(=O)N1c2ccccc2C(=O)Nc2cccnc21` (stereo not drawn) [Substance A, hydrochloride]: the ED50 was 0.0871 µmol/kg at M1 (setting [9]); 0.0123 µmol/kg at M2 (setting [10]); 0.02 µmol/kg in assay [2] (setting [7]); 0.141 µmol/kg in assay [5] (setting [8]); 0.0251 µmol/kg in [6]; 0.158 µmol/kg with secretion of saliva. The IC50 in assay [3] was found to be 9 nM; in [4], 80 nM.
For the compound `CCN(CCC1CCCN1C)CC(=O)N1c2cc(Cl)ccc2C(=O)Nc2cccnc21` (stereo not drawn) [Substance B, 9-chloro-5,11-dihydro-11[[[2-(1-methyl-2-pyrrolidinyl)ethyl]ethylamino]acetyl]-6H-pyrido-[2,3-b][1,4]benzodiazepin-6-one], the IC50 in assay [1] was 70 nM; in assay [3], 10 nM; in assay [4] it was 100 nM. The median effective dose (ED50) in assay [2] (setting [7]) was 0.1 µmol/kg; in assay [5] (setting [8]), 0.832 µmol/kg; in assay [6], 0.191 µmol/kg.
`CCN(CC)CC1CCCCN1CC(=O)N1c2ccccc2C(=O)Nc2cccnc21` (stereo not drawn) [Substance D, 11-[[2-[(diethylamino)methyl]-1-piperidinyl]acetyl]-5,11-dihydro-6H-pyrido[2,3-b][1,4]benzodiazepin-6-one]: the ED50 on M1 (setting [9]) is 2.34 µmol/kg; at M2 (setting [10]) it was 0.38 µmol/kg; in the assay with secretion of saliva, 10 µmol/kg.
For `CN1C2CCC1CC(OC(=O)C(CO)c1ccccc1)C2` (stereo not drawn) [Substance F, atropine, reference compound], the median effective dose (ED50) is 0.0457 µmol/kg at M1 (read-out: -log ED50, Blood pressure (McN-A-343 pressor response, M1)); 0.0115 µmol/kg at M2 (read-out: -log ED50, Heart (vagal bradycardia, M2)); 0.02 µmol/kg in assay [2] (read-out: -log ED50, Heart); 0.0933 µmol/kg in assay [5] (read-out: -log ED50, Bladder).
